Columns and labels:
strips of rabbit aorta = experiment: Contraction of rabbit aorta strips (cascade superfusion bioassay)
Description: Aortic microsomal powder (5 mg) was incubated with 1 μg of prostalgandin endoperoxide (PGG2 or PGH2) in 0.05 M Tris buffer (pH 7.5) (1 ml.) for 2 minutes at 22° C. Enzyme activity was estimated by direct bioassay of the incubation mixture. After incubation of 2 minutes at 22° C. all prostaglandin endoperoxide activity was lost indicated by a lack of contraction of rabbit aorta strips when assayed by the cascade superfusion technique of Vane (Br. J. Pharmacy. 23, 369-373, 1964 indicating 100% conversion of PGG2 or PGH2.

[1] = test system: gastric lesions induced by indomethacin; experiment: Gastric lesions induced in rats by indomethacin; assay type: in vivo; conditions: doses from 62.5 to 250 μg/kg, subcutaneous injection
[2] = Stability of Prostacyclin and of its anti-aggregatory activity (aqueous medium, storage); assay type: physicochemical
Description: Prostacyclin is unstable at room temperature in aqueous medium, having a half-life of approximately 10 mins., but its anti-aggregatory activity can be preserved for several days by dissolving the substance in aqueous alkali or in dry acetone and storing at -20° C. […] Prostacyclin also interrupts and reverses the presence of platelet aggregation.
The anti-aggregatory activity of the extracted Prostacyclin disappeared on bioling (15 seconds) or on standing at 22° C. for 20 minutes. The anti-aggregatory activity of Prostacyclin could be preserved for several days by dissolving the substance in dry acetone and storing at -20° C.

[3] = test system: human platelet rich plasma (PRP); experiment: Aggregation of platelets in fresh human platelet rich plasma, Born aggregometer; assay type: cell-based
Description: Aggregation of platelets in 1 ml. of fresh human platelet rich plasma (PRP) was monitored in a Born aggregometer. An immediate anti-aggregatory effect of the fresh reaction mixture of Example 1 of aortic microsomes with PGH2 or PGG2 was observed. The lowest anti-aggregatory concentration was obtained with samples containing 0.5-5 ng. Prostacyclin/ml.

[4] = test system: strips of coeliac and mesenteric arteries; experiment: Relaxation of strips of coeliac and mesenteric arteries; design: species or system rabbit
[5] = test system: strips of coronary artery from the ox; experiment: Relaxation of spirally cut strips of coronary artery; conditions: dose dependent effect
Description: The effect is dose dependent and relaxation can be seen with doses as low as 20 nanograms per 5 ml bath.

[6] = test system: isolated hearts from rabbits; experiment: Isolated hearts perfused at constant flow rate by the Langendorf technique; conditions: rabbit hearts
blood pressure = experiment: Blood pressure and heart rate in normotensive anaesthetised rats; assay type: in vivo; conditions: injected intravenously and intra-aortically
Description: Prostacyclin was injected intravenously and intra-aortically into normotensive anaethetised rats and the blood pressure and heart rate recorded.

[7] = test system: rabbit aorta, rabbit coeliac artery, rat stomach strip and rat colon; experiment: Profile of biological activity on isolated tissues
Description: 5.xi.-Iodo-9-deoxy-6.xi., 9α-epoxyprostaglandin F1α methyl ester (500 mg) was stirred with methanolic NaOMe prepared from Na (0.23 g., 10 equivs.) and MeOH (3.5 ml.) under N2 at room temperature overnight; 1N aq. NaOH (2.5 ml.) was added to the yellow reaction solution to bring about hydrolysis of the ester moiety and, after 2 hours, the methanol was evaporated in vacuo at room temperature. The residual aqueous solution gave rise spontaneously to a mass of colourless fine needles of the desired sodium salt (formula (I): R=Na) which was cooled (0°), collected, washed sparingly with 1N aq. NaOH, air-dried, and stored in a stoppered tube; this salt (383 mg.) had max (KBr disc) 1692 cm^-1 [drawing 4] and twenty ^13 C resonances only were observed (at 182.7 (C-1), 158.2 (C-6), 140.0 and 134.3 (C-13, 14), 100.7(C-5), 87.5(C-15), 80.6 and 75.5(C-9, 11), 58.0(C-12), 49.0, 45.8, 42.4, 41.9, 37.5, 35.8 (C-18), 31.6., 29.9, 29.3, 26.7(C-19), and 18.4(C-20) ppm from TMS in DMSO-d6). The product, sodium (5Z)- 5,6-didehydro-9-deoxy-6,9α-epoxyprostaglandin F1α (syn. sodium prostacyclin), thus obtained completed inhibited arachidonic acid-induced platelet aggregation (human platelet-rich plasma) at 1 ng./ml. and its profile of biological activity on the rabbit aorta, rabbit coeliac artery, rat stomach strip and rat colon conformed with that of sodium prostacyclin obtained by biosynthesis. […]

SMILES | effect on strips of rabbit aorta (strips of rabbit aorta) | effect on formation of gastric lesions [1] | anti-aggregatory activity after boiling ([2]; boiling, 15 seconds, extracted Prostacyclin) | time for which anti-aggregatory activity is preserved on storage ([2]; dissolved in dry acetone (b5: or aqueous alkali), stored at -20° C.) | half-life ([2]; room temperature, aqueous medium) | anti-aggregatory activity after standing ([2]; standing at 22° C. for 20 minutes, extracted Prostacyclin) | minimal effective concentration ([3]; Platelet, fresh reaction mixture of aortic microsomes with PGH2 or PGG2, 1 ml human PRP, read-out: lowest anti-aggregatory concentration) | effect on platelet aggregation induced by arachidonic acid and PGG2 ([3]; diethyl ether extracts) | anti-aggregatory potency relative to PGD2 ([3]; times more potent than PGD2, on average) | anti-aggregatory potency relative to PGE1 ([3]; times more potent than PGE1, on average) | effect on strips of coeliac and mesenteric arteries [4] | potency compared with PGE2 on coeliac and mesenteric artery strips [4] | lowest dose at which relaxation can be seen [5] | effect on coronary vessels [6] | vasodepressor potency relative to PGE2 (blood pressure) | profile of biological activity compared with sodium prostacyclin obtained by biosynthesis [7] | stability in water at acid pH ([2]; water, acid pH) | IC100 ([3]; arachidonic acid-induced, human platelet-rich plasma, read-out: concentration giving complete inhibition of arachidonic acid-induced platelet aggregation)
CCCCC[C@H](O)/C=C/[C@@H]1[C@H]2C/C(=C/CCCC(=O)O)O[C@H]2C[C@H]1O [Prostacyclin, (5Z)-5,6-didehydro-9-deoxy-6,9α-epoxyprostaglandin F1α] | does not contract | inhibit the formation of gastric lesions | disappeared | several days | ~10 min | disappeared | 0.0005 to 0.005 µg/mL | inhibited | 5-20 times | 10-40 times | relaxed | less potent than PGE2 | 20 nanograms per 5 ml bath | produced coronary vasodilation | 5 times | – | – | –
CCCCC[C@H](O)/C=C/[C@@H]1[C@H]2C/C(=C/CCCC(=O)O)O[C@H]2C[C@H]1O [sodium prostacyclin, sodium (5Z)-5,6-didehydro-9-deoxy-6,9α-epoxyprostaglandin F1α] | – | – | – | – | – | – | – | – | – | – | – | – | – | – | – | conformed | instability | 0.001 µg/mL
